Laboratory results taken from US10323038B2, “Pyrazole compounds and methods of making and using same” (ABIDE THERAPEUTICS, INC., priority 2015, dated 2019).

Columns and labels:
MAGL [1] = target: T1, MAGL (Mus musculus (Mouse), UniProt O35678); test: In vitro competitive activity-based protein profiling, MAGL (mouse); assay type: biochemical; conditions: for inhibition at 1 µM: read-out: MAGL % inh. 1 μM (mouse)
Method in brief: (§1)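 Residual MAGL and FAAH activity quantified from fluorescent gel bands after SDS-PAGE. Before that, FP-Rh or HT-01 probe (50 μM stock) labelled for 30 min at 37 °C, following 30 min inhibitor preincubation. Mouse assays used brain membrane fraction or cell lysates, human used prefrontal cortex or cell membranes, all at 1.0 mg/mL protein.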

FAAH = FAAH (Mus musculus (Mouse), UniProt O08914); test: In vitro competitive activity-based protein profiling, FAAH (mouse); assay type: biochemical; conditions: for inhibition at 1 µM: read-out: FAAH % inh. 1 μM (mouse)
Sequence of FAAH (O08914 whole entry): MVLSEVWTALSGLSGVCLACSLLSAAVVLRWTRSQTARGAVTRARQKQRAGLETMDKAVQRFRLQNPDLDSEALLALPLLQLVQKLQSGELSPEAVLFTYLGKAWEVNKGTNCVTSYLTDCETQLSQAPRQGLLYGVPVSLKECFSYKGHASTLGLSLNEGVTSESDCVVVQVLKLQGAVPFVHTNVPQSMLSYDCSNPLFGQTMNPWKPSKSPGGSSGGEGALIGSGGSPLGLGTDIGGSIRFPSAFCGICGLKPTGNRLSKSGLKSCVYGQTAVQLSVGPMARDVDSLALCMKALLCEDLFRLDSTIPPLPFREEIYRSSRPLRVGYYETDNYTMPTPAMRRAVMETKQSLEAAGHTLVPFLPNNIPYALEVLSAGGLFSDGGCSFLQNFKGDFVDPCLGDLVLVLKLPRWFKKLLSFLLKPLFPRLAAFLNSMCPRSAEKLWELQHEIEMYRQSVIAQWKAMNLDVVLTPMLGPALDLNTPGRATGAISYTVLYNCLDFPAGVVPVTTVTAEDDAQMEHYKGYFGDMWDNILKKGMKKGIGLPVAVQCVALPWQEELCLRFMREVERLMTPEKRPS
Method in brief: as §1

MAGL [2] = target: T1, MAGL; test: Mouse brain proteomes from inhibitor treated mice (oral gavage, 4 h), MAGL; assay type: in vivo; conditions: read-out: MAGL % inh. 5 mg/kg (mouse)
Procedure: Preparation of Mouse Brain Proteomes from Inhibitor Treated Mice.
Inhibitors were administered to wild-type C57Bl/6J by oral gavage in a vehicle of polyethylene glycol. Each animal was sacrificed 4 h following administration and brain proteomes were prepared and analyzed according to previously established methods (See Niphakis, M. J., et al. (2011) ACS Chem. Neurosci. and Long, J. Z., et al. Nat. Chem. Biol. 5:37-44).

T1 sequence (O35678 whole entry): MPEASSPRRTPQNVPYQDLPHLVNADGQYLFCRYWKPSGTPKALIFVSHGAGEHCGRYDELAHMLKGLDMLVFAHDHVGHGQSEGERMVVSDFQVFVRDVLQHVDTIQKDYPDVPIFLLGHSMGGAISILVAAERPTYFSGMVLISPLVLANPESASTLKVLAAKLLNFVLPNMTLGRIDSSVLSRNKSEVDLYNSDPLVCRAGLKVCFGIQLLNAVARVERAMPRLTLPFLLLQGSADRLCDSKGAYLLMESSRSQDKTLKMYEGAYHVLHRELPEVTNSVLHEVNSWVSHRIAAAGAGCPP

SMILES | IC50 (MAGL [1]) [nM] | inhibition at 1 µM (MAGL [1]) [%] | IC50 (FAAH) [nM] | inhibition at 1 µM (FAAH) [%] | inhibition at 5 mg/kg (MAGL [2]) [%]
CC(=O)N(C)c1cnn(C(=O)N2CCC3(CCN(Cc4ccccc4Cl)C3)C2)c1 (centres unmarked) [Example 50, N-(1-(7-(2-chlorobenzyl)-2,7-diazaspiro[4.4]nonane-2-carbonyl)-1H-pyrazol-4-yl)-N-methylacetamide] | 100 to 1000 | 50 to 75 | ≤ 100 | ≥ 75 | ≥ 75
CC(=O)N(C)c1cnn(C(=O)N2CCC3(CCN(Cc4ccccc4C(F)(F)F)C3)C2)c1 (centres unmarked) [Example 58, N-methyl-N-(1-(7-(2-(trifluoromethyl)benzyl)-2,7-diazaspiro[4.4]nonane-2-carbonyl)-1H-pyrazol-4-yl)acetamide] | 100 to 1000 | ≥ 75 | ≤ 100 | ≥ 75 | ≥ 75
CC(=O)N(C)c1cnn(C(=O)N2C[C@H]3C[C@H](N(C)Cc4ccc(Cl)cc4)C[C@H]3C2)c1 [Example 148, N-(1-(trans-5-((4-chlorobenzyl)(methyl)amino)octahydrocyclopenta[c]pyrrole-2-carbonyl)-1H-pyrazol-4-yl)-N-methylacetamide] | ≤ 100 | ≥ 75 | ≤ 100 | ≥ 75 | ≥ 75
CC(=O)N(C)c1cnn(C(=O)N2C[C@H]3C[C@H](N(Cc4ccccc4Cl)C(C)=O)C[C@H]3C2)c1 [Example 172, N-(2-chlorobenzyl)-N-(trans-2-(4-(N-methylacetamido)-1H-pyrazole-1-carbonyl)octahydrocyclopenta[c]pyrrol-5-yl)acetamide] | ≤ 100 | ≥ 75 | 1000 to 10000 | 0 to 25 | 0 to 25
CC(=O)Nc1cnn(C(=O)N2CCN(Cc3ccc(C(F)(F)F)cc3N3CCCC3)CC2)c1 [Example 217, N-(1-(4-(2-(pyrrolidin-1-yl)-4-(trifluoromethyl)benzyl)piperazine-1-carbonyl)-1H-pyrazol-4-yl)acetamide] | ≤ 100 | ≥ 75 | 1000 to 10000 | 25 to 50 | ≥ 75
Cc1cc(-c2ccccc2)ccc1CN1CCN(C(=O)n2cc(NS(C)(=O)=O)cn2)CC1 [Example 219, N-(1-(4-((3-methyl-[1,1′-biphenyl]-4-yl)methyl)piperazine-1-carbonyl)-1H-pyrazol-4-yl)methanesulfonamide] | 1000 to 10000 | ≥ 75 | ≤ 100 | ≥ 75 | ≥ 75
CC(=O)N(C)c1cnn(C(=O)N2CCC3(CCN(Cc4cccc(Oc5ccccc5)c4)C3)C2)c1 (centres unmarked) [Example 236, N-methyl-N-(1-(7-(3-phenoxybenzyl)-2,7-diazaspiro[4.4]nonane-2-carbonyl)-1H-pyrazol-4-yl)acetamide] | 100 to 1000 | ≥ 75 | ≤ 100 | ≥ 75 | 25 to 50
CC(=O)N(C)c1cnn(C(=O)N2CC3CN(Cc4ccc(Oc5cncnc5)cc4Cl)CC3C2)c1 (centres unmarked) [Example 274, N-(1-(5-(2-chloro-4-(pyrimidin-5-yloxy)benzyl)octahydropyrrolo[3,4-c]pyrrole-2-carbonyl)-1H-pyrazol-4-yl)-N-methylacetamide] | ≤ 100 | ≥ 75 | 100 to 1000 | ≥ 75 | 0 to 25
CS(=O)(=O)Nc1cnn(C(=O)N2CCN(Cc3ccc(N4CCCC4)cc3C(F)(F)F)CC2)c1 [Example 292, N-(1-(4-(4-(pyrrolidin-1-yl)-2-(trifluoromethyl)benzyl)piperazine-1-carbonyl)-1H-pyrazol-4-yl)methanesulfonamide] | ≤ 100 | 25 to 50 | 1000 to 10000 | ≥ 75 | 50 to 75
CS(=O)(=O)Nc1cnn(C(=O)N2CCC3(CCN(Cc4cc(Cl)cc(C(F)(F)F)c4)C3)CC2)c1 [Example 297, N-(1-(2-(3-chloro-5-(trifluoromethyl)benzyl)-2,8-diazaspiro[4.5]decane-8-carbonyl)-1H-pyrazol-4-yl)methanesulfonamide] | ≤ 100 | ≥ 75 | ≤ 100 | ≥ 75 | ≥ 75
CC(=O)Nc1cnn(C(=O)N2CCC3(CCN(Cc4cc(Cl)cc(C(F)(F)F)c4)C3)CC2)c1 [Example 313, N-(1-(2-(3-chloro-5-(trifluoromethyl)benzyl)-2,8-diazaspiro[4.5]decane-8-carbonyl)-1H-pyrazol-4-yl)acetamide] |  | ≥ 75 |  | ≥ 75 | ≥ 75
